This note sets out measurements from patent US9056840B2, “Coelenterazine analogues and coelenteramide analogues” (JNC Corporation, priority 2010, dated 2015).

The structures appear in SMILES notation. “Also recorded” adds a separate entry of the source.

Data set [1] addresses T1, apoaequorin (Aequorea victoria, UniProt P07164).
T1 construct: purchased Chisso Corporation
In words: Luminescence patterns of semi-synthetic aequorins, half decay time. Format: biochemical. As to conditions: for Half decay time: semi-synthetic aequorin, time in which luminescence becomes half of maximum, patterns measured for 60 seconds. On the procedure: A solution of the regenerated semi-synthetic aequorin was diluted to 10-fold with 20 mM Tris-HCl (pH 7.6) containing 0.1% BSA (manufactured by Sigma, Inc.), 0.01 mM EDTA and 150 mM NaCl. The dilution was dispensed into a 96-well microplate (Nunc #236108) at 5 μl/well. The luminescence reaction was triggered by injecting 50 mM Tris-HCl (pH 7.6) containing 50 mM calcium chloride solution at 100 μl/well. The luminescence patterns for 60 seconds were measured to determine half decay time of the luminescence (a time period in which the luminescence becomes half of the maximum luminescence intensity).

Data set [2] deals with T1, apoaequorin. In words: Luminescence spectra of semi-synthetic aequorins. Format: biochemical. To be noted: semi-synthetic aequorin, calcium added, 22 to 25° C. As for the experimental part: In a quartz cell with light path length of 10 mm, 1 ml of 50 mM Tris-HCl (pH 7.6) containing 1 mM EDTA and 100 μl (100 μg protein) of a solution of the regenerated semi-synthetic aequorin were charged. Next, 100 μl of 50 mM Tris-HCl (pH 7.6) containing 0.1 ml of 10 mM calcium chloride solution was added thereto to start the luminescence reaction. The spectra were measured on a spectrofluorimeter (FP-6500, manufactured by Jasco Co., Ltd.) with the excitation light source turned off. The measurement conditions were bandwidth: 20 nm, response: 0.5 second, scan speed: 2000 nm/min and 22 to 25° C. The luminescence spectra measured were corrected.

Data set [3] addresses T1, apoaequorin. In words: Fluorescence spectra of fluorescent proteins formed from semi-synthetic aequorins by Ca2+. The data set is classed as physicochemical. To be noted: for Maximum fluorescence wavelength λmax (nm) / Relative fluorescence intensity (rlu): fluorescent protein generated by calcium from semi-synthetic aequorin, excitation 330 nm, 25° C.; for fluorescence spectra of fluorescent proteins versus emission spectra of semi-synthetic aequorins, in words: same coelenterazine analogue. On the procedure:
The fluorescence spectra of novel fluorescent proteins formed by the Ca^2+-triggerd reaction from semi-synthetic aequorins in EXAMPLE 3 were measured at 25° C. in a quartz cell (10 mm light path length) using a Jasco FP-6500 spectrofluorometer (excitation wavelength: 330 nm, emission/excitation bandwidth: 3 nm; response: 0.5 sec, scan speed, 1000 nm/min). The fluorescence spectra measured were corrected.

Data set [4] has as its target T2, 19 kDa protein from Oplophorus luciferase (Oplophorus gracilirostris, UniProt Q9GV45).
T2 construct: made in house
In words: Substrate specificity and luminescence activity of the 19 kDa protein from Oplophorus luciferase. As to conditions: measured for 60 seconds, coelenterazine = 100. The data set is classed as biochemical. As for the experimental part:
The 19 kDa protein from Oplophorus luciferase was purified by the method described in Inouye, S. and Sasaki, S., Protein Express. Purif. (2007) 56: 261-268 and provided for use.
After 1 μl of the 19 kDa protein (2.3 mg/ml) from Oplophorus luciferase containing 1 mM DTT was dissolved in 100 μl of 30 mM Tris-HCl (pH 7.6) containing 10 mM EDTA, 1 μl of a solution of coelenterazine or its analogue (1 μg/μl) in ethanol was added to the solution to start the luminescence reaction, and the luminescence activity was measured for 60 seconds on a luminometer luminescencer-PSN AB2200 (manufactured by Atto Co., Ltd.). The luminescence activity was determined by repeating the measurement described above 3 times and expressed in terms of the maximum luminescence intensity (Imax) of luminescence activity.

Another data set deals with Gaussia luciferase. In words: Substrate specificity and luminescence activity of Gaussia luciferase. The data set is classed as biochemical. As to conditions: measured for 10 seconds, coelenterazine = 100. On the procedure: Gaussia luciferase was purified by the method described in Japanese Patent Application KOKAI No. 2008-099669 and provided for use. After 1 μl of Gaussia luciferase (0.024 mg/ml) was dissolved in 100 μl of phosphate buffered saline (manufactured by Sigma Inc.) containing 0.01% Tween 20 (manufactured by Sigma Inc.) and 10 mM EDTA, 1 μl of a solution of coelenterazine or its analogue (1 μg/μl) in ethanol was mixed with the solution to start the luminescence reaction. The luminescence activity was measured for 10 seconds on a luminometer luminescencer-PSN AB2200 (manufactured by Atto Co., Ltd.). The luminescence activity was determined by repeating the measurement described above 3 times and expressed in terms of the maximum luminescence intensity (Imax) of luminescence activity.

A further data set deals with T3, Renilla luciferase (Renilla reniformis, UniProt P27652).
T3 construct: made in house
T3 sequence (P27652 1-311): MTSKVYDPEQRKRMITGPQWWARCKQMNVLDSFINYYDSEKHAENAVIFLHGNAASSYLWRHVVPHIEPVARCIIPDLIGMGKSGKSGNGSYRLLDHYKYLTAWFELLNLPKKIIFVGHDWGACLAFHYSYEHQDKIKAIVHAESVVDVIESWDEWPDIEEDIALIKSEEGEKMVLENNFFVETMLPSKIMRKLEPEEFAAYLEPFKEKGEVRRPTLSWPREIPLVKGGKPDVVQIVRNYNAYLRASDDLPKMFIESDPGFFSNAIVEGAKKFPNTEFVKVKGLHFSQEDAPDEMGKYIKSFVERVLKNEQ
Description: Substrate specificity and luminescence activity of Renilla luciferase. Format: biochemical. As to conditions: measured for 10 seconds, coelenterazine = 100. As for the experimental part: Renilla luciferase was purified by the method described in Inouye, S. & Shimomura, O. Biochem. Biophys. Res. Commun. (1997) 233: 349-353, and used for assay.
After 1 μl of Renilla luciferase (0.45 mg/ml) was dissolved in 100 μl of 30 mM Tris-HCl (pH 7.6) containing 10 mM EDTA, 1 μl of a solution of coelenterazine or its analogue (1 μg/μl) in ethanol was added to the solution to start the luminescence reaction. The luminescence activity was measured for 10 seconds on a luminometer luminescencer-PSN AB2200 (manufactured by Atto Co., Ltd.). The luminescence activity was determined by repeating the measurement of luminescence activity described above 3 times and expressed in terms of the maximum luminescence intensity (Imax) of luminescence activity.

Data set [5] deals with T1, apoaequorin. Description: Calcium standard curve with semi-synthetic aequorins. Format: biochemical. To be noted: FIG. 3; Imax versus calcium concentration. As for the experimental part:
In 9 ml of 50 mM Tris-HCl (pH 7.6), 1 ml of 1 g/L calcium carbonate standard solution (manufactured by Wako Pure Chemicals) was diluted to prepare 10^−3 M calcium carbonate solution. One milliliter of the resulting 10^−3 M calcium carbonate solution was taken and added to 9 ml of 50 mM Tris-HCl (pH 7.6) to prepare 10^−4 M calcium carbonate solution. Next, 3 ml of the resulting 10^−4 M calcium carbonate solution was taken and added to 6 ml of 50 mM Tris-HCl (pH 7.6) to prepare […] calcium carbonate solution. One milliliter from the 10^−4 M calcium carbonate solution obtained was added to 9 ml of 50 mM Tris-HCl (pH 7.6) to prepare 10^−5 M calcium carbonate solution. Then, 3 ml of the resulting 10^−5 M calcium carbonate solution was taken and added to 6 ml of 50 mM Tris-HCl (pH 7.6) to prepare 3×10^−5 M calcium carbonate solution. A dilution series was prepared by successively repeating the procedures described above to give the 10^−3 M to 10^−8 M calcium standard solutions.
In 5 ml of 50 mM Tris-HCl (pH 7.6) containing 10 mM DTT and 30 mM EDTA, 5 mg of recombinant apoaequorin (manufactured by Chisso Corporation) was dissolved and 100 μg of coelenterazine analogue dissolved in ethanol in an amount of 1.2-fold equivalent was added to the solution. The mixture was allowed to stand at 4° C. overnight to convert into semi-synthetic aequorin. The resulting semi-synthetic aequorin was concentrated using Amicon Ultra-4 (manufactured by Millipore, Inc., molecular weight cut-off: 10,000) to remove an excessive of coelenterazine analogue. The mixture was then washed 3 times with 3 ml of 30 mM Tris-HCl (pH 7.6) containing 0.05 mM EDTA to give the solution of semi-synthetic aequorin containing 0.05 mM EDTA. This semi-synthetic aequorin solution (2.5 mg/ml) was diluted with 20 mM Tris-HCl (pH 7.6) containing 0.1% BSA (manufactured by Sigma), 0.01 mM EDTA and 150 mM NaCl.
The calcium standard solution prepared as above was dispensed into a 96-well microplate (Nunc #236108) at 50 μl/well and 10 μl of the diluted semi-synthetic aequorin solution was injected into 50 μl of various concentration of calcium standard solution. The luminescence intensity was measured for 60 seconds on a luminescence plate reader Centro LB960 (manufactured by Berthold) and expressed in terms of the maximum intensity (Imax) of luminescence. The luminescence intensity was measured on each semi-synthetic aequorin in the same procedures. Semi-synthetic aequorins for practically use were chosen by the maximum intensity (Imax) of luminescence and the calcium standard curve of semi-synthetic aequorin was prepared.

T2 sequence (Q9GV45 28-196): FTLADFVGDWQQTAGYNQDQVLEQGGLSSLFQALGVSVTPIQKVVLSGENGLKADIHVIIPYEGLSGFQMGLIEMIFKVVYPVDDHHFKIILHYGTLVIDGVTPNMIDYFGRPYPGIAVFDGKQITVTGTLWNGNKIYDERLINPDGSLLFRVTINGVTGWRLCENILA
T1 sequence (P07164 other isoform, or with tags, fused parts or gaps with the stated changes): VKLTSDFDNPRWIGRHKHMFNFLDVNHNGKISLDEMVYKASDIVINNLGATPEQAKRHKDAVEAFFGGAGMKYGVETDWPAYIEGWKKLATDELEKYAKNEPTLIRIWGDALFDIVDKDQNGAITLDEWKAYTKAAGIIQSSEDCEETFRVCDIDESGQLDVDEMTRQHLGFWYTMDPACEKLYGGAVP

For `O=c1c(Cc2ccc(O)cc2)nc2c(-c3cccs3)[nH]c(-c3ccc(O)cc3)cn1-2` [Compound 3f, 2-(4-Hydroxybenzyl)-6-(4-hydroxyphenyl)-8-(thiophen-2-yl)imidazo[1,2-α]pyrazin-3(7H)-one], at apoaequorin [1], the “half decay time of luminescence compared to coelenterazine (native aequorin), in words” value is listed as “markedly prolonged; also recorded: longer half decay time” and the “Half decay time” value was more than 60 s. The “Maximum luminescence wavelength λmax (nm)” value on apoaequorin [2] was found to be 515.0 nm. On apoaequorin [3], the “Maximum fluorescence wavelength λmax (nm)” value was 525.0 nm; the “Relative fluorescence intensity (rlu)” value is recorded as 38.5 rlu; the “fluorescence spectra of fluorescent proteins versus emission spectra of semi-synthetic aequorins, in words” value is “different luminescence spectra and fluorescence spectra”. Further, the “Luminescence activity Imax (%)” value in data set [4] worked out at 0.1%. Further, the “Luminescence activity Imax (%)” value with Gaussia luciferase stood at 0.00%. For the same compound, the “Luminescence activity Imax (%)” value at Renilla luciferase was determined as 0.00%. For the same compound, the “calcium standard curve with semi-synthetic aequorin, in words” value (“calcium standard curve” below) on apoaequorin [5] is recorded as “calcium standard curve can be prepared”.
For `O=c1c(Cc2ccc(O)cc2)nc2c(-c3cc4ccccc4s3)[nH]c(-c3ccc(O)cc3)cn1-2` [Compound 3h, 8-(Benzo[b]thiophen-2-yl)-2-(4-hydroxybenzyl)-6-(4-hydroxyphenyl)imidazo[1,2-a]pyrazin-3(7H)-one], on apoaequorin [1], the “half decay time of luminescence compared to coelenterazine (native aequorin), in words” value is given as “longer half decay time” and the “Half decay time” value amounted to 1.71 s. In addition, the “Maximum luminescence wavelength λmax (nm)” value at apoaequorin [2] amounted to 532.5 nm. Besides, at apoaequorin [3], the “Maximum fluorescence wavelength λmax (nm)” value worked out at 537.0 nm; the “Relative fluorescence intensity (rlu)” value is reported as 58.7 rlu; the “fluorescence spectra of fluorescent proteins versus emission spectra of semi-synthetic aequorins, in words” value was “different luminescence spectra and fluorescence spectra”. In data set [4], the “Luminescence activity Imax (%)” value worked out at 0.07%. Moreover, the “Luminescence activity Imax (%)” value with Gaussia luciferase was 0.00%. Besides, the “Luminescence activity Imax (%)” value at Renilla luciferase amounted to 0.00%. Besides, the “calcium standard curve” value at apoaequorin [5] is listed as “calcium standard curve can be prepared”.
On to `O=c1c(Cc2ccc(O)cc2)nc2c(-c3ccc(O)cc3)[nH]c(-c3ccc(O)cc3)cn1-2` [Compound 3j, 2-(4-Hydroxybenzyl)-6,8-bis(4-hydroxyphenyl)imidazo[1,2-a]pyrazin-3(7H)-one], for which, on apoaequorin [1], the “half decay time of luminescence compared to coelenterazine (native aequorin), in words” value is “markedly prolonged; also recorded: longer half decay time” and the “Half decay time” value is 16.8 s. Further, the “Maximum luminescence wavelength λmax (nm)” value at apoaequorin [2] was 457.5 nm. Besides, on apoaequorin [3], the “Maximum fluorescence wavelength λmax (nm)” value stood at 580.0 nm; the “Relative fluorescence intensity (rlu)” value was 13.3 rlu; the “fluorescence spectra of fluorescent proteins versus emission spectra of semi-synthetic aequorins, in words” value is “markedly different; also recorded: different luminescence spectra and fluorescence spectra”. The “Luminescence activity Imax (%)” value in data set [4] came to 0.2%. Moreover, in the data set on Gaussia luciferase, the “Luminescence activity Imax (%)” value is given as 0.01%. Further, at Renilla luciferase, the “Luminescence activity Imax (%)” value is 0.03%. In addition, the “calcium standard curve” value on apoaequorin [5] is “calcium standard curve can be prepared”.
